Reference: US20150299188A1, “HETEROCYCLIC COMPOUND” (priority 2012, published 2015)

Tested on: FLAP (5-lipoxygenase activating protein)
Experiment: In vitro binding test: displacement of [3H]-7-chloro-3-(5-((3-fluoropyridin-2-yl)methoxy)-2-methylphenyl)-3,4-dihydroquinazolin-2(1H)-one from Sf9 microsome fractions
Design: species or system human and mouse
Details: Sf9 microsome fractions expressing FLAP; 100% = radioligand binding with 10 μM sodium 3-(3-(tert-butylsulfanyl)-1-(4-chlorobenzyl)-5-isopropyl-1H-indol-2-yl)-2,2-dimethylpropanoate, 0% = DMSO; test compound concentration not given
Procedure, shortened: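 Sf9 microsomes expressing human or mouse FLAP (2 μg/mL) preincubated with compound 10 min at room temperature, then 120 nM tritiated quinazolinone ligand added for 60 min; buffer 100 mM Tris-HCl pH 7.5 with NaCl, EDTA, DTT, glycerol, Tween20. Bound ligand filtered and counted by scintillation; 10 μM indole propanoate defines 100% inhibition, DMSO 0%.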

inhibitory rate (%) | SMILES
104 | Cc1ccc(OCc2ncccc2F)cc1-n1c(=O)[nH]c2cc(C(F)(F)F)ccc2c1=O [Example 357, 3-(5-((3-fluoropyridin-2-yl)methoxy)-2-methylphenyl)-7-(trifluoromethyl)quinazoline-2,4(1H,3H)-dione]
82 | CCc1nccc2c1CN(c1cc3c(cc1C)CCC(c1ncccc1F)O3)C(=O)N2 (stereo not drawn) [Example 27, 5-ethyl-3-(2-(3-fluoropyridin-2-yl)-6-methyl-3,4-dihydro-2H-chromen-7-yl)-3,4-dihydropyrido[4,3-d]pyrimidin-2(1H)-one]
100 | Cn1cc(-c2nccc3c2CN(c2cc4c(cc2Cl)CCC(c2ncccc2F)O4)C(=O)N3)cn1 (stereo not drawn) [Example 62, 3-(6-chloro-2-(3-fluoropyridin-2-yl)-3,4-dihydro-2H-chromen-7-yl)-5-(1-methyl-1H-pyrazol-4-yl)-3,4-dihydropyrido[4,3-d]pyrimidin-2(1H)-one]
97 | Cc1cc2c(cc1N1Cc3c(cc(OCC(F)F)nc3C3CC3)NC1=O)OC(c1ncccc1F)CC2 (stereo not drawn) [Example 159, 5-cyclopropyl-7-(2,2-difluoroethoxy)-3-(2-(3-fluoropyridin-2-yl)-6-methyl-3,4-dihydro-2H-chromen-7-yl)-3,4-dihydropyrido[4,3-d]pyrimidin-2(1H)-one]
103 | O=C1Nc2c(Cl)cnc(Cl)c2CN1c1cc2c(cc1Cl)CCC(c1ncccc1F)O2 (stereo not drawn) [Example 53, 5,8-dichloro-3-(6-chloro-2-(3-fluoropyridin-2-yl)-3,4-dihydro-2H-chromen-7-yl)-3,4-dihydropyrido[4,3-d]pyrimidin-2(1H)-one]
101 | O=C1Nc2c(-c3ccoc3)ncc(Cl)c2CN1c1cc2c(cc1Cl)CCC(c1ncccc1F)O2 (stereo not drawn) [Example 155, 5-chloro-3-(6-chloro-2-(3-fluoropyridin-2-yl)-3,4-dihydro-2H-chromen-7-yl)-8-(3-furyl)-3,4-dihydropyrido[3,4-d]pyrimidin-2(1H)-one]
65 | CC(C)(C)Cc1ccc(OCc2c(F)cccc2F)cc1N1Cc2ccc(CO)cc2NC1=O [Example 294, 3-(5-((2,6-difluorobenzyl)oxy)-2-(2,2-dimethylpropyl)phenyl)-7-(hydroxymethyl)-3,4-dihydroquinazolin-2(1H)-one]
90 | Cc1cc2c(cc1N1Cc3c(cc(-c4c(C)noc4C)nc3C3CC3)NC1=O)OC(c1ncccc1F)CC2 (stereo not drawn) [Example 151, 5-cyclopropyl-7-(3,5-dimethyl-1,2-oxazol-4-yl)-3-(2-(3-fluoropyridin-2-yl)-6-methyl-3,4-dihydro-2H-chromen-7-yl)-3,4-dihydropyrido[4,3-d]pyrimidin-2(1H)-one]
104 | O=C1Nc2cc(-c3nnco3)nc(C3CC3)c2CN1c1cc2c(cc1Cl)CCC(c1ncccc1F)O2 (stereo not drawn) [Example 124, 3-(6-chloro-2-(3-fluoropyridin-2-yl)-3,4-dihydro-2H-chromen-7-yl)-5-cyclopropyl-7-(1,3,4-oxadiazol-2-yl)-3,4-dihydropyrido[4,3-d]pyrimidin-2(1H)-one]
103 | CC(C)(O)c1ccc2c(c1)NC(=O)N(c1cc(OCc3c(F)cccc3F)ccc1Cl)C2 [Example 222, 3-(2-chloro-5-((2,6-difluorobenzyl)oxy)phenyl)-7-(2-hydroxypropan-2-yl)-3,4-dihydroquinazolin-2(1H)-one]
97 | Cc1ccc(OCc2ncccc2F)cc1-n1c(=O)[nH]c2cccc(F)c2c1=O [Example 359, 5-fluoro-3-(5-((3-fluoropyridin-2-yl)methoxy)-2-methylphenyl)quinazoline-2,4(1H,3H)-dione]
109 | Cc1cc2c(cc1N1Cc3c(Cl)cnc(-c4c(C)noc4C)c3NC1=O)OC(c1ncccc1F)CC2 (single isomer, unassigned; (-)) [Example 11, (−)-5-chloro-8-(3,5-dimethyl-1,2-oxazol-4-yl)-3-(2-(3-fluoropyridin-2-yl)-6-methyl-3,4-dihydro-2H-chromen-7-yl)-3,4-dihydropyrido[3,4-d]pyrimidin-2(1H)-one]
104 | O=C(NCC(F)F)c1cc2c(c(C3CC3)n1)CN(c1cc3c(cc1Cl)CCC(c1ncccc1F)O3)C(=O)N2 (stereo not drawn) [Example 147, 3-(6-chloro-2-(3-fluoropyridin-2-yl)-3,4-dihydro-2H-chromen-7-yl)-5-cyclopropyl-N-(2,2-difluoroethyl)-2-oxo-1,2,3,4-tetrahydropyrido[4,3-d]pyrimidine-7-carboxamide]
51 | O=C(NCc1ccccn1)c1ccc(OCc2c(F)cccc2F)cc1N1Cc2ccccc2NC1=O [Example 192, 4-((2,6-difluorobenzyl)oxy)-2-(2-oxo-1,4-dihydroquinazolin-3(2H)-yl)-N-(pyridin-2-ylmethyl)benzamide]
71 | Cc1ccc(OCc2c(F)cccc2F)cc1N1Cc2cccc(CO)c2NC1=O [Example 194, 3-(5-((2,6-difluorobenzyl)oxy)-2-methylphenyl)-8-(hydroxymethyl)-3,4-dihydroquinazolin-2(1H)-one]
116 | COc1ccc(CN2C(=O)N(c3cc(OCc4ncccc4F)ccc3Br)Cc3ccccc32)cc1 [Example 258, 3-(2-bromo-5-((3-fluoropyridin-2-yl)methoxy)phenyl)-1-(4-methoxybenzyl)-3,4-dihydroquinazolin-2(1H)-one]
107 | Cc1cc2c(cc1N1Cc3c(Cl)ncnc3NC1=O)OC(c1ncccc1F)CC2 (stereo not drawn) [Example 37, 5-chloro-3-(2-(3-fluoropyridin-2-yl)-6-methyl-3,4-dihydro-2H-chromen-7-yl)-3,4-dihydropyrimido[4,5-d]pyrimidin-2(1H)-one]
104 | COCCOc1cccc2c(=O)n(-c3cc(OCc4ncccc4F)ccc3C)c(=O)[nH]c12 [Example 354, 3-(5-((3-fluoropyridin-2-yl)methoxy)-2-methylphenyl)-8-(2-methoxyethoxy)quinazoline-2,4(1H,3H)-dione]
93 | Cc1ccc(OCc2ncccc2F)cc1N1Cc2cccc(Cl)c2NC1=O [Example 253, 8-chloro-3-(5-((3-fluoropyridin-2-yl)methoxy)-2-methylphenyl)-3,4-dihydroquinazolin-2(1H)-one]
106 | CC(C)(O)c1ccc2c(c1)NC(=O)N(c1cc(OCc3c(F)cccc3F)ccc1CCc1ccccc1)C2 [Example 260, 3-(5-((2,6-difluorobenzyl)oxy)-2-(2-phenylethyl)phenyl)-7-(2-hydroxypropan-2-yl)-3,4-dihydroquinazolin-2(1H)-one]
100 | Cc1ccc(OCc2ncccc2F)cc1-n1c(=O)[nH]c2cccc(OCC3CC3)c2c1=O [Example 367, 5-(cyclopropylmethoxy)-3-(5-((3-fluoropyridin-2-yl)methoxy)-2-methylphenyl)quinazoline-2,4(1H,3H)-dione]
113 | Cc1noc(C)c1-c1ncc(Cl)c2c1NC(=O)N(c1cc3c(cc1Cl)CCC(c1ncccc1F)O3)C2 (stereo not drawn) [Example 126, 5-chloro-3-(6-chloro-2-(3-fluoropyridin-2-yl)-3,4-dihydro-2H-chromen-7-yl)-8-(3,5-dimethyl-1,2-oxazol-4-yl)-3,4-dihydropyrido[3,4-d]pyrimidin-2(1H)-one]
58 | CCCN1CCN(Cc2ccc(OCc3ncccc3F)cc2N2Cc3ccccc3NC2=O)CC1 [Example 314, 3-(5-((3-fluoropyridin-2-yl)methoxy)-2-((4-propylpiperazin-1-yl)methyl)phenyl)-3,4-dihydroquinazolin-2(1H)-one]
104 | Cc1ccc(OCc2ncccc2F)cc1N1Cc2ccc(C(=O)N(C)C3CC3)cc2NC1=O [Example 302, N-cyclopropyl-3-(5-((3-fluoropyridin-2-yl)methoxy)-2-methylphenyl)-N-methyl-2-oxo-1,2,3,4-tetrahydroquinazoline-7-carboxamide]
104 | Cc1cc2c(cc1N1Cc3c(cc(CCC(=O)O)nc3C3CC3)NC1=O)OC(c1ncccc1F)CC2 (stereo not drawn) [Example 94, 3-(5-cyclopropyl-3-(2-(3-fluoropyridin-2-yl)-6-methyl-3,4-dihydro-2H-chromen-7-yl)-2-oxo-1,2,3,4-tetrahydropyrido[4,3-d]pyrimidin-7-yl)propanoic acid]
97 | COC1CN(C(=O)c2cc3c(c(C4CC4)n2)CN(c2cc4c(cc2Cl)CCC(c2ncccc2F)O4)C(=O)N3)C1 (stereo not drawn) [Example 146, 3-(6-chloro-2-(3-fluoropyridin-2-yl)-3,4-dihydro-2H-chromen-7-yl)-5-cyclopropyl-7-((3-methoxyazetidin-1-yl)carbonyl)-3,4-dihydropyrido[4,3-d]pyrimidin-2(1H)-one]
51 | Cn1c(=O)n(-c2cccc(OCc3c(F)cccc3F)c2)c(=O)c2ccncc21 [Example 331, 3-(3-((2,6-difluorobenzyl)oxy)phenyl)-1-methylpyrido[3,4-d]pyrimidine-2,4(1H,3H)-dione]
107 | Cc1n[nH]c(-c2cc3c(c(C4CC4)n2)CN(c2cc4c(cc2Cl)CCC(c2ncccc2F)O4)C(=O)N3)n1 (stereo not drawn) [Example 119, 3-(6-chloro-2-(3-fluoropyridin-2-yl)-3,4-dihydro-2H-chromen-7-yl)-5-cyclopropyl-7-(3-methyl-1H-1,2,4-triazol-5-yl)-3,4-dihydropyrido[4,3-d]pyrimidin-2(1H)-one]
100 | Cc1cc2c(cc1N1Cc3c(ccnc3C(F)(F)F)NC1=O)O[C@@H](c1ncccc1F)CC2 [Example 5, 3-((2R)-2-(3-fluoropyridin-2-yl)-6-methyl-3,4-dihydro-2H-chromen-7-yl)-5-(trifluoromethyl)-3,4-dihydropyrido[4,3-d]pyrimidin-2(1H)-one]
100 | COCCN1C(=O)N(c2cc(OCc3ncccc3F)ccc2C)Cc2c(Cl)cccc21 [Example 283, 5-chloro-3-(5-((3-fluoropyridin-2-yl)methoxy)-2-methylphenyl)-1-(2-methoxyethyl)-3,4-dihydroquinazolin-2(1H)-one]
